Data from patent publication EP1187837B1, “THIAZEPINE INHIBITORS OF HIV-1 INTEGRASE” (THE UNITED STATES GOVERNMENT as represented by THE …, priority 1999, dated 2000).
Values joined by “and” are separate entries in the source; they are usually repeats but may differ in a detail not shown here. Identical values can stand only once. Like-named read-outs stand apart in the source and are kept apart here.

Columns and labels:
[1] = molecular target: T1, purified human immunodeficiency virus type-1 integrase (HIV-1 IN) (Human immunodeficiency virus type 1 group M subtype B, UniProt P12497); assay: Integrase assay: 3'-processing and strand transfer (3'-end joining), 32P-labeled oligonucleotide, gel/PhosphorImager, Mn2+ cofactor; conditions: purified IN 200 nM, 7.5 mM MnCl2, 30°C;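 note: enzyme at 200 nM preincubated with inhibitor 30 min at 30°C, then 20 nM labeled 21-mer DNA for 1 h, inhibition relative to enzyme without drug, background from DNA alone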
Description: (§1) The HPLC purified oligonucleotides AE117 (5'-[sequence]-3'); AE118 (5'-[sequence]-3'); AE157 (5'-[sequence]-3'); AE146 (5'-[sequence]-3'); AE156 (5'-[sequence]-3'); RM22M (5'-[sequence]-3'); and RMAB2 (5'-[sequence]-3') were purchased from Midland Certified Reagent Company (Midland, TX). An expression system for the wild-type integrase and the IN^50-212 (F185K) were obtained from the Laboratory of Molecular Biology, NIDDK, NIH, Bethesda, MD.
(§2) To analyze the extent of 3'-processing and strand transfer using 5'-end labeled substrates, AE118 was 5'-end labeled using T4 polynucleotide kinase (Gibco BRL) and γ[^32P]-ATP (Dupont-NEN). […] The kinase was heat-inactivated and AE117 was added to the same final concentration. The mixture was heated at 95°C, allowed to cool slowly to room temperature, and run through a G-25 Sephadex quick spin column (Boehringer Mannheim, Indianapolis, IN) to separate annealed double-stranded oligonucleotide from unincorporated label.
(§3) To determine the extent of 3'-processing and strand transfer, integrase was preincubated at a final concentration of 200 nM with the inhibitor in a reaction buffer (50 mM NaCl, 1 mM HEPES, pH 7.5, 50 µM EDTA, 50 µM dithiothreitol, 10% glycerol (w/v), 7.5 mM MnCl2, 0.1 mg/ml bovine serum albumin, 10 mM 2-mercaptoethanol, 10% dimethyl sulfoxide, and 25 mM MOPS, pH 7.2) at 30°C for 30 minutes. Then, 20 nM of the 5'-end ^32P-labeled linear oligonucleotide substrate was added, and incubation was continued for an additional one hour. Reactions were quenched by the addition of an equal volume (16 µl) of loading dye (98% deionized formamide, 10 mM EDTA, 0.025% xylene cyanol and 0.025% bromophenol blue). An aliquot (5 µl) was electrophoresed on a denaturing 20% polyacrylamide gel (0.09 M tris-borate pH 8.3, 2 mM EDTA, 20% acrylamide, 8M urea).
(§4) Gels were dried, exposed in a PhosphorImager cassette, and analyzed using a Molecular Dynamics PhosphorImager (Sunnyvale, CA). Percent inhibition was calculated using the following equation: %I = 100 X [1-(D-C)/(N-C)] [formula] where C, N, and D are the fractions of 21-mer substrate converted to 19-mer (3'-processing product) or strand transfer products for DNA alone (C), DNA plus integrase (N), and integrase plus drug (D). All IC50 values were determined by plotting the drug concentration versus percent inhibition, and determining the concentration which produced 50% inhibition.

[2] = Cytotoxicity control in uninfected CEM cells (XTT formazan); format: cell-based; conditions: human, read-out: Cell data (µM) CC50: 50% cytotoxic concentration; for CC50 at 6 days: uninfected T4 lymphocytes (CEM cell line); for CC50 at 144 h: 6 days
Description: (§5) The anti-HIV drug testing was performed at NCI based on a protocol described by Weislow et al.^36 All compounds were dissolved in dimethyl sulfoxide and diluted 1:100 in cell culture medium. Exponentially growing T4 lymphocytes (CEM cell line) were added at 5000 cells per well. Frozen virus stock solutions were thawed immediately before use, suspended in complete medium to yield the desired multiplicity of infection (m. o. i. ≈ 0.1), and added to the microtiter wells, resulting in a 1:200 final dilution of the compound. Uninfected cells with the compound served as a toxicity control, and infected and uninfected cells without the compound served as basic controls.
(§6) Cultures were incubated at 37°C in a 5% CO2 atmosphere for 6 days. The tetrazolium salt, XTT was added to all wells, and cultures were incubated to allow formazan color development by viable cells. Individual wells were analyzed spectrophotometrically to quantitate formazan production, and in addition were viewed microscopically for detection of viable cells and confirmation of protective activity.

[3] = molecular target: T1, purified human immunodeficiency virus type-1 integrase (HIV-1 IN); assay: biochemical
Description: as §1, §2, §3, §4

HIV-1 infected CEM cells = assay: Anti-HIV assay in cultured CEM cells (NCI Antiviral Drug Screen, XTT formazan); format: cell-based
Description: as §5, §6

HIV-1 IN = molecular target: T2, HIV-1 IN (Human immunodeficiency virus type 1 group M subtype B, UniProt P12497); assay: Integrase assay with Mg+2 as cofactor; format: biochemical; conditions: compared with Mn+2
T2 construct: An expression system for the wild-type integrase; made in house
Description: A 21-mer oligonucleotide corresponding to the last 21 bases on the HIV-1 viral DNA in the U5 region of long terminal repeat (LTR) was radiolabeled with ^32P. This is shown in the Figs. 2 and 3 as a band corresponding to DNA alone. Integrase will cleave the last two bases of this DNA in the presence of Mn^+2 or Mg^+2 to give a 19-mer DNA substrate (lane 2) which runs faster on the gel and is indicated as 19-mer on the Figures. When an inhibitor is added this process is blocked, therefore the original 21-mer DNA would not be cut. When an inhibitor is added at various concentrations, percent inhibition at every concentration will be calculated by quantification of the intensity of each band using an Imagequant program.
The gels are run using polyacrylamide according to the standard procedures. Upon completion of electrophoresis run, the gels are dried and exposed to a phosphorimager cassette. The cassettes are analyzed by the phosphorimager, and the bands are shown on a computer screen. The intensity of each band is quantitated, plotted against concentrations of drugs, and the IC50 values are calculated from the graphs.

[4] = molecular target: T1, purified human immunodeficiency virus type-1 integrase (HIV-1 IN)
Description: as §1, §2, §3, §4

[5] = Integrase Assay IC50 (µM) 3'-Processing
[6] = Human immunodeficiency virus 1, CCRF-CEM, 144 h, HIV-1 infected CEM cells, 6 days, XTT, read-out: Cell data (µM) EC60: 50% effective concentration
[7] = Human immunodeficiency virus 1, CCRF-CEM, 144 h, read-out: Cell data (µM) EC60: 50% effective concentration, HIV-1 infected CEM cells, 6 days, XTT
[8] = read-out: Integrase Assay IC50 (µM) 3'-Processing

SMILES | IC50 [1, 5] | IC50 [3] | EC50 (HIV-1 infected CEM cells; [7]) | further results
O=C1Sc2ccc(Cl)cc2C(=O)N2CCSC12 (racemic) [Compound 2, (±)-7-Chloro-2,3-dihydro-5H-thiazolo[2,3-c][1,4]benzothiazepine-5,11 (11aH)-dione] | 151 µM and 105 µM | 120 µM and 60 µM | – | CC50 at 6 days [2]: > 50 µM; EC50 (HIV-1 infected CEM cells; [6]): > 50 µM
O=C1Sc2ccc(Br)cc2C(=O)N2CCSC12 (racemic) [Compound 3, (±)-7-Bromo-2,3-dihydro-5H-thiazolo[2,3-c][1,4]benzothiazepine-5,11 (11aH)-dione] | 58 ± 15 µM | 48 ± 18 µM | – | –
O=C1Sc2ccccc2C(=O)N2CSCC12 (racemic) [Compound 5] | – | – | > 200 µM | –
O=C1Sc2ccc(Cl)cc2C(=O)N2CSCC12 (racemic) [Compound 6, (±)-7-Chloro-1,11a-dihydro-3H,5H,11H-thiazolo[4,3-c][1,4] benzothiazepine-5,11-dione] | 158 µM and 111 µM | 160 µM and 110 µM | – | CC50 at 6 days [2]: > 100 µM; EC50 (HIV-1 infected CEM cells; [6]): > 100 µM
O=C1Sc2ccc(Br)cc2C(=O)N2CSCC12 (racemic) [Compound 7, (±)-7-Bromo-1,11a-dihydro-3H,5H,11H-thiazolo[4,3-c][1,4] benzothiazepine-5,11-dione] | 87 ± 24 µM | 74 ± 32 µM | – | CC50 at 6 days [2]: > 200 µM; EC50 (HIV-1 infected CEM cells; [6]): > 200 µM
Cc1ccc2c(c1)C(=O)N1CSCC1C(=O)S2 (racemic) [Compound 8, (±)-1,11a-Dihydro-7-methyl-3H,5H,11H-thiazolo[4,3-c][1,4] benzothiazepine-5,11-dione] | 52 µM | 63 µM | – | CC50 at 6 days [2]: 35 µM
O=C1Sc2cc([N+](=O)[O-])ccc2C(=O)N2CSCC12 (racemic) [Compound 9, (±)-1,11a-Dihydro-8-nitro-3H,5H,11H-thiazolo[4,3-c][1,4] benzothiazepine-5,11-dione] | 90 ± 27 µM | 100 ± 36 µM | – | CC50 at 6 days [2]: > 50 µM; EC50 (HIV-1 infected CEM cells; [6]): > 50 µM
COc1ccc2c(c1)C(=O)N1CSCC1C(=O)S2 (racemic) [Compound 10, (±)-1,11a-dihydro-7-methoxy-3H,5H,11H-thiazolo[4,3-c][1,4]benzothiazepine-5,11-dione] | 155 µM and 275 µM | 155 µM and 245 µM | – | CC50 at 6 days [2]: > 200 µM; EC50 (HIV-1 infected CEM cells; [6]): > 200 µM
O=C1Sc2ccccc2C(=O)N2COCC12 (racemic) [Compound 12, (±)-1,11a-Dihydro-3H,5H,11H-oxazolo[4,3-c][1,4]benzothiazepine-5,11-dione] | > 333 µM | > 333 µM | – | –
Cc1ccc2c(c1)C(=O)N1CC[S@@+]([O-])[C@@H]1C(=O)S2 (racemic) [Compound 15, (±)-cis-2,3-Dihydro-7-methyl-5H-thiazolo[2,3-c][1,4]benzothiazepme-5,11 (11aH)-dione 1-Oxide] | – | – | > 100 µM | CC50 at 144 h [2]: > 100 µM
O=C1Sc2cc3ccccc3cc2C(=O)N2CCSC12 (racemic) [Compound 19, (±)-2,3-Dihydro-5H-naphto[2,3-f]thiazolo[2,3-c][1,4]thiazepine-5,13(13aH)-dione] | – | – | 60 µM | inhibition of IN in the presence of Mg+2 (HIV-1 IN): active in the presence of Mg^+2 within the same concentration range as in Mn^+2
O=C1Sc2cc3ccccc3cc2C(=O)N2CSCC12 (racemic) [Compound 20, (±)-1,13a-Dihydro-3H,5H,11H-naphto[2,3-f]thiazolo[4,3-c][1,4] thiazepine-5,13-dione] | – | – | 279 to 286 µM | inhibition of IN in the presence of Mg+2 (HIV-1 IN): active in the presence of Mg^+2 within the same concentration range as in Mn^+2
O=C1c2ccccc2SC(O)(c2ccccc2)C2CCCN12 (racemic) [Compound 26, (±)-2,3,11,11a-Tetrahydro-11-hydroxy-11-phenyl-1H,5H-pyrrolo [2,1-c][1,4]benzothiazepin-5-one] | > 1000 µM | > 1000 µM | – | –
CN1CCN([C@@H]2Sc3ccccc3C(=O)N3CCC[C@@H]23)CC1 (racemic) [Compound 27, (±)-cis-2,3,11,11a-Tetrahydro-11-(4-methylpiperazin-1-yl)-1H,5H-pyrrolo[2,1-c][1,4]benzothiazepin-5-one] | > 1000 µM | > 1000 µM | – | CC50 at 6 days [2]: > 125 µM; EC50 (HIV-1 infected CEM cells; [6]): > 125 µM
CN1CCN(Cc2ccc3n2Cc2ccccc2SC3c2ccccc2)CC1 (racemic) [Compound 31, (±)-3-[(4-Methylpiperazin-1-yl)methyl]-11-phenyl-5H,11H-pyrrolo [2,1-c][1,4]benzothiazepine] | > 1000 µM | > 1000 µM | – | –
O=C1Sc2ccccc2C(=O)N2CCSC12 (centres unmarked) [Compound 1] | – | – | 107 ± 26 µM | inhibition of IN in the presence of Mg+2 (HIV-1 IN): active in the presence of Mg^+2 within the same concentration range as in Mn^+2; EC50 (HIV-1 infected CEM cells; HIV-1 infected CEM cells, 6 days, XTT, read-out: Cell data (µM) EC60: 50% effective concentration): 107 µM
COc1cc2c(cc1OC)C(=O)N1CSCC1C(=O)S2 (centres unmarked) [Compound 11] | – | – | > 50 µM | –
COc1cc2c(cc1OC)C(=O)N1CCCC1C(=O)S2 (centres unmarked) [Compound 13] | – | – | > 200 µM | IC50 [1, 8]: > 1000 µM; IC50 [4]: > 1000 µM
O=C1Sc2ccccc2C(=O)N2CCCCC12 (centres unmarked) [Compound 14] | – | – | > 200 µM | –
CC(=O)OC1Sc2ccccc2C(=O)N2CCCC12 (centres unmarked) [Compound 21] | – | – | > 200 µM | IC50 [1, 8]: > 1000 µM; IC50 [4]: > 1000 µM
COC1Sc2ccccc2C(=O)N2CCCC12 (centres unmarked) [Compound 22] | > 1000 µM | > 1000 µM | > 200 µM | CC50 at 144 h [2]: > 200 µM
O=C1c2ccccc2SCC2CSC(c3ccccc3)N12 (centres unmarked) [Compound 23] | 111 µM | 288 µM | – | –
COc1cc2c(cc1OC)C(=O)N1CCCC1CS2 (centres unmarked) [Compound 24] | – | – | > 200 µM | IC50 [1, 8]: > 1000 µM; IC50 [4]: > 1000 µM
O=C1c2ccccc2SC(O)C2CCCN12 (centres unmarked) [Compound 25] | – | – | > 200 µM | IC50 [1, 8]: > 1000 µM; IC50 [4]: > 1000 µM
O=C1Sc2ccccc2Cn2cccc21 [Compound 28] | – | – | 146 µM | CC50 at 144 h [2]: > 200 µM
CCOC(=O)C1Sc2ccccc2Cn2cccc21 (centres unmarked) [Compound 29] | > 1000 µM | > 1000 µM | – | –
CN(C)Cc1ccc2n1Cc1ccccc1SC2c1ccc(F)cc1 (centres unmarked) [Compound 30] | > 1000 µM | > 1000 µM | – | –
